Columns and labels:
[1] = tested on: iPS cells of human origin (clone 201B7); assay: Expression of myocardial cell marker genes by fluorescent cytoimmunostaining; type: cell-based; details: sample 1 addition section, 16th day after start of main culture
Experimental: To check the state of expression of myocardial cell marker genes, cytoimmunostaining (fluorescent immunostaining) of proteins that are the gene products of myocardial marker genes was carried out on the cells in each of the test sections at the 16th day after the start of main culture. The expression of the following as myocardial marker genes was checked: myosin heavy chain (MHC), cardiac Troponin T (cTnT), tropomyosin (TM), and connexin 43 (Cx43).
First, the cells in each test section were subjected to a fixing treatment, a permeabilization treatment, and a blocking treatment. This fixing treatment, permeabilization treatment, and blocking treatment were carried out using a commercial kit (Image-iT Fixation/Permeabilization Kit, Life Technologies Corporation) in accordance with the manual provided with the kit.
Specifically, the culture medium was first removed from the culture vessel (12-well plate) for the cells in each test section on the 16th day after the start of the main culture (16th day after the addition of the myocardial cell differentiation-inducing synthetic peptide). The fixing treatment was performed by adding the fixative solution (Fixative Solution, contained 4 volume % formaldehyde in PBS (pH=7.3)) from the kit at 0.4 mL/well and holding at quiescence for 15 minutes at room temperature. This was followed by washing 3 times using the wash buffer (Wash Buffer, PBS, pH=7.4) from the kit at 0.5 mL/well.
A permeabilization treatment was then performed by adding the permeabilization solution (Permeabilization solution, contained 0.5 volume % Triton (registered trademark) X-100) from the kit at 0.5 mL/well and holding at quiescence for 15 minutes at room temperature. This was followed by washing three times with the wash buffer ([…]) from the kit.
After the cells in each well had been washed with PBS-T (PBS containing 0.25 volume % Triton (registered trademark) X-100), a blocking treatment was performed by adding the blocking solution (Blocking Solution, contained 3 weight/volume % (w/v %) BSA fraction V in DPBS (Dulbecco's PBS) (pH=7.4)) from the kit to each well and standing at quiescence overnight (about 18 hours) at 4° C.
After this blocking treatment, the primary antibody dilutions were added to each well followed by holding at quiescence for 2 hours at room temperature; the primary antibody dilutions were prepared by the dilution of the specified primary antibodies to a suitable antibody concentration using the blocking solution used in the blocking treatment.
The following primary antibodies were used as these primary antibodies: anti-myosin heavy chain antibody, anti-cardiac Troponin T antibody, anti-tropomyosin antibody, and anti-connexin 43 antibody. […]

[2] = tested on: iPS cells of human origin (clone 201B7); assay: Induction of myocardial cell differentiation: microscopic observation of beating cells; type: cell-based
From the text: Pluripotent stem cells were induced to myocardial cells (production of myocardial cells) using the myocardial cell differentiation-inducing synthetic peptide obtained in Example 1 (sample 1). Specifically, pluripotent stem cells were induced to myocardial cells (production of myocardial cells) by using the myocardial cell differentiation-inducing synthetic peptide obtained in Example 1 (sample 1) in place of activin A in the method for inducing the differentiation of pluripotent stem cells into hepatocytes. The method described in Non Patent Literature 3 was adopted for the method for inducing the differentiation of pluripotent stem cells into hepatocytes. iPS cells of human origin (clone designation: 201B7, source: Takahashi K et al., Cell, 131, 861-872 (2007)) were used for the test cells. These iPS cells were supplied by the Center for iPS Cell Research and Application of Kyoto University.
The iPS cells, which were the test cells, were seeded to 12-well plates coated with an extracellular matrix (Geltrex (registered trademark) in the present case). Using mTeSR1 (STEMCELL Technologies Inc.) for the culture medium, they were cultured (precultured) in a CO2 incubator under conditions of 37° C. and 5% CO2 until an appropriate cell density (here, a confluence of about at least 60% and not more than 70%) had been reached. Medium exchange was performed each day during this preculture.
The sample 1 obtained in Example 1 was then added to the culture medium and cultivation was carried out (main culture). Thus, the pluripotent stem cells were induced to myocardial cells (production of myocardial cells) by using the myocardial cell differentiation-inducing synthetic peptide obtained in Example 1 (sample 1) in place of the activin A in the method for inducing the differentiation of pluripotent stem cells into hepatocytes that is given in Non Patent Literature 3. The following were set up in the present example: a test section (referred to below as the activin A addition section) that used the same method as the method given in Non Patent Literature 3 for inducing the differentiation of pluripotent stem cells to hepatocytes using activin A; a test section (referred to below as the sample 1 addition section) that used the myocardial cell differentiation-inducing synthetic peptide of sample 1 in place of the activin A in the activin A addition section; and a control section to which neither the activin A nor the myocardial cell differentiation-inducing synthetic peptide was added. The specifics are given below. The culture conditions in this main culture are given schematically in FIG. 1.
(§1) First, the culture medium was exchanged to base medium 1 in the activin A addition section, the sample 1 addition section, and the control section. In the activin A addition section, activin A (R&D Systems, Inc., Cat. No. 338-AC-D50) was added to the culture vessel (i.e., to the base medium 1) in a quantity that provided an activin A concentration in the culture medium of 100 ng/mL. […]
as §1, with “After this cultivation for 2 days (i.e., the 2nd day after the start of the main culture), the” for “First, the”, “medium 2” for “medium 1”, “A” for “A (R&D Systems, Inc., Cat. No. 338-AC-D50)”, “medium 2)” for “medium 1)”

Row | Molecule | expression of cardiac Troponin T in comparison to control section ([1]; FIG. 2) | expression of myosin heavy chain in comparison to control section ([1]; FIG. 2) | expression of connexin 43 in comparison to control section ([1]; FIG. 3) | expression of tropomyosin in comparison to control section ([1]; FIG. 3) | number of beating cells present (abundance ratio) compared to 9th day ([2]; sample 1 addition section, 8 μM, 10th day after start of main culture) | number of beating cells ([2]; sample 1 addition section, 8 μM, 17th day after start of main culture, 12-well plate) | number of beating cells (abundance ratio), average ([2]; sample 1 addition section, repeated tests, 17th day after start of main culture) | probability that at least 1 beating cell was present per 1 well ([2]; sample 1 addition section, tests independently repeated a plurality of times, 12-well plate) | presence of beating cells ([2]; activin A addition section, 100 ng/mL, daily observation during main culture)
1 | LLLLLLVGLTAPAGKKRTLRKNDRKKR [sample 1] | substantially increased | substantially increased | substantially increased | substantially increased | had increased | approximately 38 beating cells/well | about 40 per 1 well of the 12-well plate | at least 95% | –
2 | activin A: peptide having approximately 140 amino acid residues (R&D Systems, Cat. No. 338-AC-D50), used in the hepatocyte differentiation-inducing method (protein, UniProt P08476 311-426, looked up, Inhibin beta A chain, peptide having approximately 140 amino acid residues (R&D Systems, Cat. No. 338-AC-D50), used in the hepatocyte differentiation-inducing method) Inhibin beta A chain: GLECDGKVNICCKKQFFVSFKDIGWNDWIIAPSGYHANYCEGECPSHIAGTSGSSLSFHSTVINHYRMRGHSPFANLKSCCVPTKLRPMSMLYYDDGQNIIKKDIQNMIVEECGCS | – | – | – | – | – | – | – | – | could not be confirmed
